From BindingDB's records for doi:10.1016/s0960-894x(01)00278-5 (Pharmacia, 2001) come the findings set out here.

The nature of this test: Binding affinity towards guinea pig Opioid receptor kappa 1 using radioligand [3H]U69,593.

Regarding `CN(C)C(=O)c1ccc2c3c1OC1C(O)C=C[C@H]4[C@@H](C2)N(C)CC[C@]314` (stereo partly drawn) [4,10N,10N-trimethyl-14-hydroxy-(1S,5R,17R)-12-oxa-4-azapentacyclo[9.6.1.01,13.05,17.07,18]octadeca-7,9,11(18),15-tetraene-10-carboxamide], the Ki – broadly, the dissociation constant of the complex between target and ligand, obtained from inhibition or displacement – is above 10 µM. To `CNC(=O)c1ccc2c3c1OC1C(O)C=C[C@H]4[C@@H](C2)N(C)CC[C@]314` (stereo partly drawn) [4,10N-dimethyl-14-hydroxy-(1S,5R,17R)-12-oxa-4-azapentacyclo[9.6.1.01,13.05,17.07,18]octadeca-7,9,11(18),15-tetraene-10-carboxamide] belongs above 10 µM. The same measure for `CN1CC[C@]23c4c5ccc(C(N)=O)c4OC2C(O)C=C[C@H]3[C@H]1C5` (stereo partly drawn) [14-hydroxy-4-methyl-(1S,5R,17R)-12-oxa-4-azapentacyclo[9.6.1.01,13.05,17.07,18]octadeca-7,9,11(18),15-tetraene-10-carboxamide]: 1.9 µM.
